In patent US10406146B2, “Heterocyclic compound” (TAKEDA PHARMACEUTICAL COMPANY LIMITED, priority 2015, dated 2019):

Key:
Format in all cases: biochemical
[1] = target: T1, HDAC6 enzyme (Homo sapiens, UniProt Q9UBN7); assay: HDAC6 enzyme inhibitory assay (HDAC-Glo I/II Assay kit); conditions: wells without enzyme = 100% inhibition, read-out: HDAC6 inhibitory rate (%) (1 μM)
T1 construct: transducing full length HDAC1 and HDAC6 genes into Sf-9 insect cells; GST; purchased SignalChem; host or cells: Sf-9 insect cells
T1 sequence (Q9UBN7 1-1215): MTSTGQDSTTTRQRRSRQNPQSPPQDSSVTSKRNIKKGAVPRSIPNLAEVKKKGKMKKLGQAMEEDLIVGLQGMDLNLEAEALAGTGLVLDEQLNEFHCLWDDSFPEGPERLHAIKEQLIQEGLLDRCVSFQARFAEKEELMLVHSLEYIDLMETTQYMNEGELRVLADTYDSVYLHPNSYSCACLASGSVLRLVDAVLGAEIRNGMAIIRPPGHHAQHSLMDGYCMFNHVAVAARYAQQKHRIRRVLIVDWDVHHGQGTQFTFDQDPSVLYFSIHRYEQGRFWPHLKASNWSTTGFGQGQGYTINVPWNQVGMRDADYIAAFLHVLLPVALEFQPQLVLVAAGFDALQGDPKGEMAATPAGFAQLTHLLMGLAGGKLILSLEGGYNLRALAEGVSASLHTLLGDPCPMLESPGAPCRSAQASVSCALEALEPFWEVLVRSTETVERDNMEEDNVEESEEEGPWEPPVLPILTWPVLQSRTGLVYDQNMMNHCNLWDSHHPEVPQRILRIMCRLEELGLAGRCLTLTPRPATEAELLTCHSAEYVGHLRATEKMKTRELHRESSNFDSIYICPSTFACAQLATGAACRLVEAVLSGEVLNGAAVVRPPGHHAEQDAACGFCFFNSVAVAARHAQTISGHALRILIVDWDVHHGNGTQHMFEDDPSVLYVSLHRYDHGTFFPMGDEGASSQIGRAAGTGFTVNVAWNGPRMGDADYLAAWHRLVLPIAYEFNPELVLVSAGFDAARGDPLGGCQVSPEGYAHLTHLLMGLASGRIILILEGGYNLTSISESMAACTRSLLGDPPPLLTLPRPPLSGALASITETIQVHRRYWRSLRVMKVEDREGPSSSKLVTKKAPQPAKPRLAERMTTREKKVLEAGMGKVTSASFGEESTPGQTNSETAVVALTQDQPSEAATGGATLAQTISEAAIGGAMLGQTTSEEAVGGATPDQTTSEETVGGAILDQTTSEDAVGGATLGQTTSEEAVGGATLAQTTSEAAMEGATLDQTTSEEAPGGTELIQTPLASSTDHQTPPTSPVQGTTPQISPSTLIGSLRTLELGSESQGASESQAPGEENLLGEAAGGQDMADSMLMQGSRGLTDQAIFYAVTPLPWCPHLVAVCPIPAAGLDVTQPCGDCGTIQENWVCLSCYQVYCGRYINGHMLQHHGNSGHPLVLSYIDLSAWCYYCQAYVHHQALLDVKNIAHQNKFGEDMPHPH
Description: (§1) HDAC1/6 Enzyme Inhibitory Assay
(§2) HDAC1 enzyme and HDAC6 enzyme each prepared by transducing full length HDAC1 and HDAC6 genes into Sf-9 insect cells and purifying by GST affinity column were purchased from SignalChem. Using these enzymes, HDAC1 and/or HDAC6 enzyme inhibitory activities of the compound of the present invention were evaluated. Enzymes were used after preserved at −70° C. HDAC1 or HDAC6 enzyme inhibitory activity of the compound of the present invention was measured using HDAC-Glo™ I/II Assay kit (Promega) according to the following experimental method. The test compound diluted with assay buffer (24 mM Tris-HCl (pH 7.5), 1 mM MgCl2, 0.35 mM KCl, 135 mM NaCl, 0.6 mM Glutathione, 0.01% Tween-20) was added to a 384-well plate by each 2 μL. Then, HDAC1 or HDAC6 enzyme solution diluted with assay buffer was added thereto by each 4 μL, and the plate was incubated at room temperature for 60 min. After incubated, HDAC substrate-Developer solution prepared according to Promega protocol attached to the assay kit was added to the 384-well plate by each 2 μL, and the enzyme reaction was started. After reacting at room temperature for 20 min, luminescence level was measured using plate reader Envision (PerkinElmer). The inhibitory activity of each compound was calculated as a relative activity value when luminescence level in wells without enzyme is considered as 100% inhibition.

[2] = target: T2, HDAC1 enzyme (Homo sapiens, UniProt Q13547); assay: HDAC1 enzyme inhibitory assay (HDAC-Glo I/II Assay kit); conditions: wells without enzyme = 100% inhibition, read-out: HDAC1 inhibitory rate (%) (1 μM)
T2 construct: transducing full length HDAC1 and HDAC6 genes into Sf-9 insect cells; GST; purchased SignalChem; host or cells: Sf-9 insect cells
T2 sequence (Q13547 whole entry): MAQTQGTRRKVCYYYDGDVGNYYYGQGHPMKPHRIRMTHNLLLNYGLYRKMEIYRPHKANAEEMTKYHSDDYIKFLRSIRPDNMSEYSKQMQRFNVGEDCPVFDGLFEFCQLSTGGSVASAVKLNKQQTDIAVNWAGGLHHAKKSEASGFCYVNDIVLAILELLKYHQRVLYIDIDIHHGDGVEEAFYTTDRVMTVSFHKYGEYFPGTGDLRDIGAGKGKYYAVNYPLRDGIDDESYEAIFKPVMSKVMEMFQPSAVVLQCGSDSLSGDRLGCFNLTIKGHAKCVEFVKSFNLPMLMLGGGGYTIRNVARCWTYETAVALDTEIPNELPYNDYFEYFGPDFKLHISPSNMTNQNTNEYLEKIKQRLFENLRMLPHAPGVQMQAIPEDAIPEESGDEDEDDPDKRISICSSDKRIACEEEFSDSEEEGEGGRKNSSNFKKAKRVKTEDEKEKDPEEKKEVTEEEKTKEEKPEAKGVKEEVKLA
Description: as §1, §2

[3] = target: T3, HDAC9 enzyme (Homo sapiens, UniProt Q9UKV0); assay: HDAC9 enzyme inhibitory assay (HDAC-Glo class IIa); conditions: wells without enzyme = 100% inhibition, read-out: HDAC9 inhibitory rate (%) (1 μM)
T3 construct: transducing full length HDAC9 gene into Sf-9 insect cells; made in house; host or cells: Sf-9 insect cells
T3 sequence (Q9UKV0 whole entry, species assumed): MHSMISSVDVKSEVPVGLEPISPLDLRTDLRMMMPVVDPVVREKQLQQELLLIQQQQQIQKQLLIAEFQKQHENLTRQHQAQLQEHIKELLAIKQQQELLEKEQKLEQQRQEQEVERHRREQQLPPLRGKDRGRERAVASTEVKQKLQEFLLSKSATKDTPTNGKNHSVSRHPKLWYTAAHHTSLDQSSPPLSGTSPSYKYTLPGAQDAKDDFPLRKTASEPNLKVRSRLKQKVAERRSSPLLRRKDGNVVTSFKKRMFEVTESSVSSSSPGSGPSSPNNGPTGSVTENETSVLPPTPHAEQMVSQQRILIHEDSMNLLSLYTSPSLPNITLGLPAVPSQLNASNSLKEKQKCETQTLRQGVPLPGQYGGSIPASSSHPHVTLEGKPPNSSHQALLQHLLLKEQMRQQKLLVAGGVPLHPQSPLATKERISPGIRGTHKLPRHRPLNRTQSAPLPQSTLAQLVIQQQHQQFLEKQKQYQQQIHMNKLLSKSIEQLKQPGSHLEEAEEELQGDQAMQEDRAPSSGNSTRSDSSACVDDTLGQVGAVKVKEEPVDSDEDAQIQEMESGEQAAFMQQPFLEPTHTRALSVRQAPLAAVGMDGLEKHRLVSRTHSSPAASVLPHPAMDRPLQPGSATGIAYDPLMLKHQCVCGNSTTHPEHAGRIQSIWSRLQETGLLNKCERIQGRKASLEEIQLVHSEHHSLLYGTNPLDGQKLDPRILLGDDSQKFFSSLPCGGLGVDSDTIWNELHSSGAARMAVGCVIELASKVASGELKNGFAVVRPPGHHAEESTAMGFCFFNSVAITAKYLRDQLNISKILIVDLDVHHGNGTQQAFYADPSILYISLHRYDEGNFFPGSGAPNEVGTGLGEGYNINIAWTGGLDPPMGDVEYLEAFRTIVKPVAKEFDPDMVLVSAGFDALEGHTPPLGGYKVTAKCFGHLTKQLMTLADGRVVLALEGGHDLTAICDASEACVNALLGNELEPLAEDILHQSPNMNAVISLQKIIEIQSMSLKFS
Description: HDAC9 Enzyme Inhibitory Assay
Enzyme was prepared by transducing full length HDAC9 gene into Sf-9 insect cells and purifying by Ni-NTA affinity column, and HDAC9 enzyme inhibitory activity was evaluated. Enzymes were used after preserved at −70° C. HDAC9 enzyme inhibitory activity of the test compound was measured using HDAC-Glo class IIa (Promega) according to the following experimental method. The test compound diluted with assay buffer (24 mM Tris-HCl (pH 7.5), 1 mM MgCl2, 0.35 mM KCl, 135 mM NaCl, 0.6 mM Glutathione, 0.01% Tween-20) was added to a 384-well plate by each 2 μL. Then, HDAC9 enzyme solution diluted with assay buffer was added thereto by each 2 μL, and the plate was incubated at room temperature for 60 min. After incubated, HDAC substrate-Developer solution prepared according to Promega protocol was added to the 384-well plate by each 4 μL, and the enzyme reaction was started. After reacting at room temperature for 20 min, luminescence level was measured using plate reader Envision (PerkinElmer). The inhibitory activity of each compound was calculated as a relative activity value when luminescence level in wells without enzyme is considered as 100% inhibition.

inhibition at 1 µM [1] [%]	inhibition at 1 µM [2] [%]	inhibition at 1 µM [3] [%]	SMILES
7	59	98	Cn1nccc1C(=O)NCC1CCCCN1C(=O)Nc1ccc(-c2noc(C(F)(F)F)n2)cc1 (stereo not drawn) [Example 41, 2-((((1-methyl-1H-pyrazol-5-yl)carbonyl)amino)methyl)-N-(4-(5-(trifluoromethyl)-1,2,4-oxadiazol-3-yl)phenyl)piperidine-1-carboxamide]
3	8	71	Cn1nc(C(=O)NCC2CCCCN2C(=O)Nc2ccc(-c3noc(C(F)(F)F)n3)cc2)c2ccccc21 (stereo not drawn) [Example 42, 1-methyl-N-((1-((4-(5-(trifluoromethyl)-1,2,4-oxadiazol-3-yl)phenyl)carbamoyl)piperidin-2-yl)methyl)-1H-indazole-3-carboxamide]
7	57	74	O=C(NCC1CCCCN1C(=O)Nc1ccc(-c2noc(C(F)(F)F)n2)cc1)C1CCc2ccccc2O1 (stereo not drawn) [Example 43, 2-(((3,4-dihydro-2H-chromen-2-ylcarbonyl)amino)methyl)-N-(4-(5-(trifluoromethyl)-1,2,4-oxadiazol-3-yl)phenyl)piperidine-1-carboxamide]
1	3	79	O=C(NCC1CCCCN1C(=O)Nc1ccc(-c2noc(C(F)(F)F)n2)cc1)c1cc2ccccc2o1 (stereo not drawn) [Example 44, 2-(((1-benzofuran-2-ylcarbonyl)amino)methyl)-N-(4-(5-(trifluoromethyl)-1,2,4-oxadiazol-3-yl)phenyl)piperidine-1-carboxamide]
3	20	93	O=C(NCC1CCCCN1C(=O)Nc1ccc(-c2noc(C(F)(F)F)n2)cc1)c1ccc2nccn2c1 (stereo not drawn) [Example 45, N-((1-((4-(5-(trifluoromethyl)-1,2,4-oxadiazol-3-yl)phenyl)carbamoyl)piperidin-2-yl)methyl)imidazo[1,2-a]pyridine-6-carboxamide]
11	93	94	O=C(Cc1cccs1)NCC1CCCCN1C(=O)Nc1ccc(-c2noc(C(F)(F)F)n2)cc1 (stereo not drawn) [Example 46, 2-(((2-thienylacetyl)amino)methyl)-N-(4-(5-(trifluoromethyl)-1,2,4-oxadiazol-3-yl)phenyl)piperidine-1-carboxamide]
7	68	89	O=C(CCc1ccccc1)NCC1CCCCN1C(=O)Nc1ccc(-c2noc(C(F)(F)F)n2)cc1 (stereo not drawn) [Example 47, 2-(((3-phenylpropanoyl)amino)methyl)-N-(4-(5-(trifluoromethyl)-1,2,4-oxadiazol-3-yl)phenyl)piperidine-1-carboxamide]
5	41	88	CC(=O)NCC1CCCCN1C(=O)Nc1ccc(-c2noc(C(F)(F)F)n2)cc1 (stereo not drawn) [Example 48, 2-(acetamidomethyl)-N-(4-(5-(trifluoromethyl)-1,2,4-oxadiazol-3-yl)phenyl)piperidine-1-carboxamide]
7	75	92	O=C(NCC1CCCCN1C(=O)Nc1ccc(-c2noc(C(F)(F)F)n2)cc1)C1CC1 (stereo not drawn) [Example 49, 2-(((cyclopropylcarbonyl)amino)methyl)-N-(4-(5-(trifluoromethyl)-1,2,4-oxadiazol-3-yl)phenyl)piperidine-1-carboxamide]

The next lines start with the compound.

SMILES	inhibition at 1 µM [1] [%]	inhibition at 1 µM [2] [%]	inhibition at 1 µM [3] [%]
O=C(NCC1CCCCN1C(=O)Nc1ccc(-c2noc(C(F)(F)F)n2)cc1)c1ccccn1 (stereo not drawn) [Example 34, N-((1-((4-(5-(trifluoromethyl)-1,2,4-oxadiazol-3-yl)phenyl)carbamoyl)piperidin-2-yl)methyl)pyridine-2-carboxamide]	4	28	84
O=C(NCC1CCCCN1C(=O)Nc1ccc(-c2noc(C(F)(F)F)n2)cc1)c1cccnc1 (stereo not drawn) [Example 35, N-((1-((4-(5-(trifluoromethyl)-1,2,4-oxadiazol-3-yl)phenyl)carbamoyl)piperidin-2-yl)methyl)nicotinamide]	4	58	96
O=C(NCC1CCCCN1C(=O)Nc1ccc(-c2noc(C(F)(F)F)n2)cc1)c1ccncc1 (stereo not drawn) [Example 36, N-((1-((4-(5-(trifluoromethyl)-1,2,4-oxadiazol-3-yl)phenyl)carbamoyl)piperidin-2-yl)methyl)isonicotinamide]	5	63	97
O=C(NCC1CCCCN1C(=O)Nc1ccc(-c2noc(C(F)(F)F)n2)cc1)c1cc[n+]([O-])cc1 (stereo not drawn) [Example 37, N-((1-((4-(5-(trifluoromethyl)-1,2,4-oxadiazol-3-yl)phenyl)carbamoyl)piperidin-2-yl)methyl)isonicotinamide 1-oxide]	2	2	88
O=C(NCC1CCCCN1C(=O)Nc1ccc(-c2noc(C(F)(F)F)n2)cc1)c1cccs1 (stereo not drawn) [Example 38, 2-(((2-thienylcarbonyl)amino)methyl)-N-(4-(5-(trifluoromethyl)-1,2,4-oxadiazol-3-yl)phenyl)piperidine-1-carboxamide]	7	37	95
Cn1ccnc1C(=O)NCC1CCCCN1C(=O)Nc1ccc(-c2noc(C(F)(F)F)n2)cc1 (stereo not drawn) [Example 39, 2-((((1-methyl-1H-imidazol-2-yl)carbonyl)amino)methyl)-N-(4-(5-(trifluoromethyl)-1,2,4-oxadiazol-3-yl)phenyl)piperidine-1-carboxamide]	5	47	90
Cn1cnc(C(=O)NCC2CCCCN2C(=O)Nc2ccc(-c3noc(C(F)(F)F)n3)cc2)c1 (stereo not drawn) [Example 40, 2-((((1-methyl-1H-imidazol-4-yl)carbonyl)amino)methyl)-N-(4-(5-(trifluoromethyl)-1,2,4-oxadiazol-3-yl)phenyl)piperidine-1-carboxamide]	3	11	76
